pKd: −log10 of the molar value. Several values for one entry are separate records, joined by “and”; a condition that tells them apart may be missing. Equal values may be shown once.

Series [1] has as its target T1, USP9X catalytic domain (Homo sapiens, UniProt Q93008).
T1 construct: His/SUMO (pOPIN-S vector) (N, cleaved yes); made in house; host or cells: E. coli BL21
T1 sequence (Q93008 1551-1970): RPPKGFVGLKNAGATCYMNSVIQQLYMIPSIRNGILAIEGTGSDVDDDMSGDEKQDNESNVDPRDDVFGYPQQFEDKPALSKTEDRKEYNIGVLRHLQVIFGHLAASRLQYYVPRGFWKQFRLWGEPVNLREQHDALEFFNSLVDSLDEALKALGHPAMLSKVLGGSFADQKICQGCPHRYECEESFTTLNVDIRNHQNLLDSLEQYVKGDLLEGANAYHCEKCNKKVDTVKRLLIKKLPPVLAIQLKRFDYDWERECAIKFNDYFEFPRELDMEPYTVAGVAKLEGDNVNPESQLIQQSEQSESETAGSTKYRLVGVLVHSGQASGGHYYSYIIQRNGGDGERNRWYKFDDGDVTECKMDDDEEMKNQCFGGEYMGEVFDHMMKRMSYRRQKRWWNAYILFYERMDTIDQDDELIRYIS
Nature of the series: Ub-Rho cleavage assay. It counts as biochemical. Particulars: relative to WEHI-553. As for the experimental part:
The reaction was stopped through the addition of 10 mM citric acid. The assay was performed in 384-well format with a total reaction volume of 16 µL. Data was collected using the ClarioSTAR plate reader (BMG Labtech) at an emission of 535 nm. […] IC50 values presented in our study are the mean of three independent biological repeats unless indicated otherwise.

In series [2] the target is T1, USP9X catalytic domain. Nature of the series: SPR binding assay. Particulars: SPR, steady state, mean of three repeats; read-out: KD (steady state affinity). The procedure:
Next, the sample was desalted using PD midiTrap™ G-25 (GE Healthcare) columns following the manufacturer’s instructions and was further purified by SEC, concentrated, and stored at -80 °C. Enzyme activity was tested in a ubiquitin-probe assay. SPR experiments were performed on a Biacore 8 K+ instrument (Cytiva). USP9X catalytic domain with a C-terminal AviTag™ was immobilised in 10 mM HEPES, 150 mM NaCl at pH 7.4 on a Series S Sensor Chip SA (Cytiva) by coupling. […] Running buffer was supplemented with 2% (v/v) DMSO. Multi-cycle kinetics were performed with 120 s associations and 600 s dissociations at 30 µL/min with no further regeneration. Binding constants were determined in Biacore Insight evaluation software (v5.0.18) at steady state, taking the median response over a 5-s window beginning at 10 s before the end of the association phase. Final KD values are the mean of three independent experiments.
(In general: SPR reads the build-up and loss of mass on a sensor chip optically.)

The subject of another series is MDA-MB-231 cells. Nature of the series: Colony formation assay, MDA-MB-231. Particulars: 10 µM, 7–12 days. It counts as cell-based, human. As for the experimental part:
(§1) Cells were seeded at low density (200–4000 cells per well) after initial optimisation in a six-well tissue culture-treated plate (Falcon). Twenty-four hours post seeding, media was replaced, and the inhibitor was added. Cells were left to grow into colonies between 7 and 12 days, depending on the cell line. For analysis, the media was removed, and the cells were fixed with 10% (w/v) formalin for 10 min. Colonies were stained with crystal violet (Sigma-Aldrich, 0.5% [w/v] in 20% [v/v] MeOH) for 10 min and washed thrice with distilled H2O. Plates were imaged using the ChemiDoc imaging system (Bio-Rad) and analysed using the ImageJ ColonyArea plugin as described previously (Guzmán et al, [2014]).

For the next series, the system named is HUVECs. Kind of series: IncuCyte live-cell imaging, HUVEC. The class given is cell-based. The procedure: (§2) Cells were seeded at varying densities (1000–8000 cells per well) after initial optimisation in a 96-well tissue culture-treated plate (Thermo Fisher Scientific). Cells were incubated o/n, and the next day, inhibitors and controls diluted in cell media were added to the cells to a final volume of 200 μL per well. Cell death was measured using PI (Sigma-Aldrich). Cells were imaged with four images per well every 2 h for up to 96 h using the IncuCyte live-cell analysis system (S3, Sartorius). Cell proliferation data were analysed using Microsoft Excel by normalising confluence to control conditions. For cell killing readouts, the number of PI-positive cells was normalised to the control conditions for each timepoint.

The subject of a further series is MDA-MB-468 cells. Nature of the series: Colony formation assay, MDA-MB-468. The class given is cell-based, human. Particulars: 10 µM, 7–12 days. The procedure: as §1
Another series concerns UO-31 cells. Nature of the series: Lattice light sheet imaging, UO-31. Particulars: 15 µM, imaged 24-48 h. The class given is cell-based, human. As for the experimental part:
(§3) MDA-MB-231, MiaPaca2, HMEC-1, SK-MEL-2 and UO-31 cells were seeded at 2–15 × 10^4 cells/mL in 8-well glass µ-slides (ibidi). […] SPY650-Tubulin, SPY555-DNA (both Spirochrome, Inc.), and Annexin V FITC (Sigma-Aldrich) were added at a final concentration of 1 in 1000. Cells were left to grow for 24 h before time-lapse live-cell data were acquired using a Lattice Light Sheet 7 (Zeiss). […] Aberration correction was set to a value of 170 to minimise aberrations as determined by imaging the Point Spread Function using 100 nm fluorescent microspheres. Data were collected with a frame time of 10 ms and a z step of 0.4 μm with 834 frames per 290 μm by 290 μm. Individual regions were imaged in parallel across six wells of the eight-well chamber slide. Data are presented as Maximum Intensity Projections (MIPs), and these MIPs were used for all downstream analysis. Tile regions were imaged for 24 h with 10 min intervals at 37 °C, 5% CO2. Analysis was performed using the MIPs of the different full fields of cells over the 24–48 h time period. Mitosis and mitosis arrest were classified through a combination of automated image analysis and manual validation. […] Small erroneous detected spots were further removed through a manually adjusted size filter. […] The mean intensity of all tracks was then measured to determine mitosis and mitosis arrest. […]

Another series relates to ACHN cells. Nature of the series: IncuCyte live-cell imaging cell death, ACHN. It counts as cell-based, human. Particulars: 10 µM. The procedure:
as §2

Series [3] concerns SK-MEL-2 cells. Kind of series: Lattice light sheet imaging of mitosis, SK-MEL-2. It counts as cell-based, human. The following applies: 15 µM, imaged 24-48 h. The procedure:
as §3

A further series deals with DLD-1 cells. Kind of series: Colony formation assay, DLD-1. Particulars: 10 µM, 7–12 days. The class given is cell-based, human. The procedure:
as §1

The subject of series [4] is SK-MEL-2 cells. Nature of the series: Colony formation assay, SK-MEL-2. It counts as cell-based, human. The following applies: 10 µM, 7–12 days. As for the experimental part: as §1

The term pKd denotes the negative decadic logarithm of the Kd, by convention in mol/L. Take `Cc1[nH]c2ccc(C(=O)N3CCN(S(=O)(=O)c4ccc5c(c4)OCCO5)CC3)cc2c1C` [WEHI-092]: the “improvement of IC50 towards USP9X by SAR” value at USP9X catalytic domain [1] is listed as above 16 fold. Also, the negative-log Kd (pKd) on USP9X catalytic domain [2] was 6.00 and 5.98. In addition, the “clonogenic potential, MDA-MB-231” value with MDA-MB-231 cells is given as “strong decrease in proliferative capacity”. In addition, in the series with HUVECs, the “toxicity to HUVECs” value was “non-lethal and non-toxic”. Further, the “clonogenic potential, MDA-MB-468” value in the series on MDA-MB-468 cells is “strong decrease in proliferative capacity”. Moreover, the “arrested mitosis phenotype, UO-31” value with UO-31 cells is listed as “did not display the arrested mitosis phenotype”. For the same molecule, the “response of ACHN cells (cell death)” value in the series with ACHN cells is reported as “limited response”. In the series with SK-MEL-2 cells [3], the “cell division phenotype, SK-MEL-2” value was “significant defects in cell division”. The “clonogenic potential, DLD-1” value in the series on DLD-1 cells is recorded as “strong decrease in proliferative capacity”. Moreover, the “clonogenic potential, SK-MEL-2” value in the series on SK-MEL-2 cells [4] was “sensitive”.

The values are drawn from article PMC13144739, “Global analysis of cancer cell responses to USP9X inhibition” (The EMBO Journal, 2026).
